Here are results for one compound from US20070265238A1, “METHOD FOR ACCELERATING REENTRAINMENT OF A CIRCADIAN RHYTHM” (priority 2006, published 2007).

The structures appear in SMILES notation.

This assay concerns body temperature rhythms. The assay is described as follows: Reentrainment of body temperature circadian rhythm after eastward jet travel across 6 time zones (Detroit to Vienna). The format is in vivo, human. The following applies: applied beneath nostrils each morning on awakening; for length of time to reestablish stable body temperature rhythms: women, vs control vehicle (mineral oil and clove oil), FIG. 1. The method, then:
This experimental involved 15 subjects who were traveling from Detroit, Michigan to Vienna, Austria by air, a journey which spanned 6 time zones. The subjects comprised 8 women and 5 men aged 18-19 and 2 women […]. Two groups of compositions were prepared. The first comprised an experimental formulation containing 20 micrograms of 4,16-androstadien-3-one dissolved in a mixture of mineral oil and clove oil. A second composition comprising a control/placebo consisted of the mineral oil and clove oil. The 2 compositions were each packaged in 5 ml and supplied to selected test subjects along with cotton-tipped applicators. The test and control materials were randomly distributed, and participants were unaware of which composition they had obtained.
Upon arrival in Vienna, each participant was directed to place a small amount of their particular composition directly beneath their nostrils with a new cotton applicator immediately upon awakening each morning. The participants were directed to allow the compositions to remain on their skin for at least an hour.
External temperature monitors (iButton, Inc., Pittsburgh, Pa.) were affixed to each of the subjects with a gauze protective layer between the skin and the monitoring device. The monitors were covered with neoprene material for insulation against environmental temperature interference and held in place with a waterproof medical bandage which was changed every 3 days or as necessary. The monitoring devices were set to acquire temperature every 10 minutes throughout the entire period of the experiment and for a 3-day period prior to travel. Participants also kept daily event logs to monitor the timing of activities that could influence temperature data such as sleep and wake times, showers, exercise and naps. […]
Data were analyzed to determine the length of time needed for core temperature rhythms to reentrain with the new time schedule, returning to a phase angle of entrainment similar to that recorded before travel. […]

With `C[C@@]12C=CC[C@H]1[C@@H]1CCC3=CC(=O)CC[C@]3(C)[C@H]1CC2` [4,16-androstadien-3-one], the “length of time to reestablish stable body temperature rhythms” value is listed as “accelerate reestablishment of body temperature rhythms”. Further, the “reentrainment rate of body temperature rhythms” value (men, vs control vehicle) is given as “no effects”. Moreover, the “length of time to reestablish stable body temperature rhythms” value (listed as pheromone) was “reentrained significantly faster”.
